Data published in ChEMBL document CHEMBL3351363 (J Med Chem, 2014).

Columns and labels:
[1] = biological target: T1, Muscarinic acetylcholine receptor M4 (Homo sapiens) (UniProt P08173); experiment: Antagonist activity at human M4 receptor expressed in HEK293T cells assessed as inhibition of carbachol-induced response by BRET based Gq protein engagement assay relative to untreated control; format: cell-based; details: HEK-293T
T1 sequence (whole entry): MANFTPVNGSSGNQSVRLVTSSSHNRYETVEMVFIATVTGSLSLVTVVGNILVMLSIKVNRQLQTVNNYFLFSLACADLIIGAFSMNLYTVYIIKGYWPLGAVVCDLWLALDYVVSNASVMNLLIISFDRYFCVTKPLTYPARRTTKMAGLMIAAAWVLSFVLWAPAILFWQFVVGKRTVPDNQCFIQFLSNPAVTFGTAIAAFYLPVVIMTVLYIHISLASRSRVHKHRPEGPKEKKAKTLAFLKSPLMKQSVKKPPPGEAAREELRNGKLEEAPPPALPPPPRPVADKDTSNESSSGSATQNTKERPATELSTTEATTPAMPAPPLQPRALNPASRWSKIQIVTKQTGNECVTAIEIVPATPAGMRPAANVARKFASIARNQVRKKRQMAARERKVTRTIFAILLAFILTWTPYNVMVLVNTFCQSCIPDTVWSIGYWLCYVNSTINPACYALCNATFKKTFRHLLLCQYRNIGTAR

[2] = biological target: T2, Muscarinic acetylcholine receptor M1 (Homo sapiens, UniProt P11229)
T2 sequence (P11229 whole entry): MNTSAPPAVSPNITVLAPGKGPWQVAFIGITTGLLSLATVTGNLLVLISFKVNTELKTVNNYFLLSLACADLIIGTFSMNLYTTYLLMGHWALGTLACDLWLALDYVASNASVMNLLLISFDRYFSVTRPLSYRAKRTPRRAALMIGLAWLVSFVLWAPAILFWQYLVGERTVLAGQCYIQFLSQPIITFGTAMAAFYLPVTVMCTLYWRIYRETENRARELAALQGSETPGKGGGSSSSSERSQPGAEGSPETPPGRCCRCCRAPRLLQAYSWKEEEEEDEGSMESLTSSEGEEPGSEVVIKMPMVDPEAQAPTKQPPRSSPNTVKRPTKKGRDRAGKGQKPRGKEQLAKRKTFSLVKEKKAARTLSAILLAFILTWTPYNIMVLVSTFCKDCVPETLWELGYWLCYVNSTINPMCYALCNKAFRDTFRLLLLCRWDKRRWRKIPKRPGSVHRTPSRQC

[3] = biological target: T3, Muscarinic acetylcholine receptor M4 (Homo sapiens, UniProt P08173); experiment: Displacement of [3H]NMS from human M4 receptor expressed in CHO cells by microplate scintillation counting based radioligand binding assay; format: cell-based
T3 sequence (P08173 whole entry): T1 sequence (whole entry)

[4] = biological target: T3, Muscarinic acetylcholine receptor M4; experiment: Agonist activity at human M4 receptor expressed in HEK293T cells by BRET based Gq protein activation assay
[5] = biological target: T4, Muscarinic acetylcholine receptor M5 (Homo sapiens, UniProt P08912); experiment: Displacement of [3H]NMS from human M5 receptor expressed in CHO cells by microplate scintillation counting based radioligand binding assay; format: cell-based
T4 sequence (P08912 whole entry): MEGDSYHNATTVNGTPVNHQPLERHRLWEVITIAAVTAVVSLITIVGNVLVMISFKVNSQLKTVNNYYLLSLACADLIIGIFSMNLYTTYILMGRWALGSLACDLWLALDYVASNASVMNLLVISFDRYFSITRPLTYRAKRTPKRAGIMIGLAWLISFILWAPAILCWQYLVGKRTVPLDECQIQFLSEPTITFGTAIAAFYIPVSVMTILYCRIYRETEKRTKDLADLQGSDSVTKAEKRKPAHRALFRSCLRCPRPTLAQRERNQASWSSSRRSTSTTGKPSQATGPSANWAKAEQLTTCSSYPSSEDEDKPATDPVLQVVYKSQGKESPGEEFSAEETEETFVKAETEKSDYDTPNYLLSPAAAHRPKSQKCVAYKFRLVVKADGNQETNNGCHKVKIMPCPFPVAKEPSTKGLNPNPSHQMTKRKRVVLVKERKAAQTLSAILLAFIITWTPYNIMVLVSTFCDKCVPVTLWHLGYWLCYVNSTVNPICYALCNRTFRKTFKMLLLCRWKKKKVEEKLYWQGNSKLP

[6] = biological target: T5, Muscarinic acetylcholine receptor M1 (Homo sapiens) (UniProt P11229); experiment: Agonist activity at human M1 receptor expressed in HEK293T cells by BRET based Gq protein engagement assay relative carbachol; format: cell-based; details: HEK-293T
T5 sequence (whole entry): T2 sequence (P11229 whole entry)

[7] = biological target: T3, Muscarinic acetylcholine receptor M4
[8] = biological target: T5, Muscarinic acetylcholine receptor M1 (Homo sapiens); experiment: Agonist activity at human M1 receptor expressed in HEK293T cells by BRET based Gq protein activation assay relative to carbachol; format: cell-based; details: HEK-293T
[9] = biological target: T5, Muscarinic acetylcholine receptor M1 (Homo sapiens); experiment: Positive modulatory activity at human M1 receptor expressed in HEK293T cells assessed as effect on carbachol-induced response by BRET based Gq protein engagement assay relative to untreated control; format: cell-based; details: HEK-293T
[10] = biological target: T2, Muscarinic acetylcholine receptor M1; remark: listed apart in the source
[11] = biological target: T3, Muscarinic acetylcholine receptor M4; experiment: Antagonist activity at human M4 receptor expressed in HEK293T cells assessed as inhibition of xanomeline-induced response by beta-arrestin engagement assay; format: cell-based, HEK-293T
[12] = biological target: T2, Muscarinic acetylcholine receptor M1; experiment: Positive modulatory activity at human M1 receptor expressed in HEK293T cells assessed as effect on carbachol-induced response by BRET based Gq protein activation assay; format: cell-based, HEK-293T
[13] = biological target: T3, Muscarinic acetylcholine receptor M4; experiment: Antagonist activity at human M4 receptor expressed in HEK293T cells assessed as inhibition of carbachol-induced response by beta-arrestin engagement assay; format: cell-based, HEK-293T
[14] = biological target: T1, Muscarinic acetylcholine receptor M4 (Homo sapiens); experiment: Antagonist activity at human M4 receptor expressed in HEK293T cells assessed as inhibition of carbachol-induced response by BRET based Gi protein activation assay relative to untreated control; details: HEK-293T
[15] = biological target: T2, Muscarinic acetylcholine receptor M1; remark: listed apart in the source

CCCCC1CCN(CCCN2C(=O)CCc3ccccc32)CC1
Imax [1]: 86%
IC50 [2]: 174 nM
Ki [3]: 209 nM
EC50 [4]: 275 nM
Ki [5]: 5370 nM
Emax [6]: 81%
IC50 [7]: 47900 nM
Emax [8]: 57%
Emax [9]: 101%
IC50 [10]: 1580 nM
IC50 [11]: 7590 nM
EC50 [12]: 191 nM
IC50 [13]: 178 nM
Imax [14]: 55%
EC50 [15]: 120 nM
